Results reported in patent US20220133894A1, “BISPHOSPHONATE-LINKED COMPOUNDS” (OREGON HEALTH & SCIENCE UNIVERSITY, priority 2019, published 2022).

Test system: RAW 267.4 cells
Test: Osteo Assay pit formation, osteoclast-mediated bone degradation
Type: cell-based, mouse
Description: FIG. 4 represents the KBU2046 inhibition of osteoclast function. FIG. 4A compares effects on Raf1 activation. RAW 267.4 cells were treated with RANKL for 4 days, treated with 10 μM KBU2046 for the indicated time periods, and Western blot for the denoted proteins performed. (B) Effects on cell morphology. RAW 267.4 cells were treated with RANKL and with KBU2046 for 4 days, or not, and denoted, and stained for actin (green) and DAPI (blue); white arrow denotes an actin ring, yellow arrow a resorptive cavity. Representative immunofluorescent images are depicted. (C) Tartrate resistant acid phosphatase (TRAP) expression. […] RAW 267.4 cells were plated onto Osteo Assay plates, treated with RANKL for 6 days and with KBU2046 (or vehicle for controls) as indicated and bone surface area quantified. Data are the mean±SEM (N=3 replicates) of bone surface area, expressed as the percentage of control cells; * denotes P<0.05 compared to control.
To determine whether KBU2046 inhibits osteoclast-mediated bone degradation, we used Corning Osteo Assay Surface plates, which are coated with calcium-phosphate-based bone mineral. This platform supports osteoclast growth, allowing for the quantitative measurement of bone degradation, and has previously been used to measure bisphosphonate-mediated inhibition of bone degradation (40). […]

For `O=C1c2ccccc2OCC1c1ccc(F)cc1` (centres unmarked) [KBU2046, 3-(4-fluorophenyl)chroman-4-one], the “increase of bone surface area compared with control (mean±SEM)” value (10 μmol/L KBU2046, RANKL, 6 days) was 28%±1.4% and the bone surface area (plates pre-treated with ZA at 2, 10 and 20 μM, KBU2046 10 μM) was “significantly increased”.
